The values below come from paper PMC12669040, “Tumour-specific STING agonist synthesis via a two-component prodrug system” (Nature Chemistry, 2025).

By EC50 is commonly meant the concentration that produces a half-maximal response. Usually Kd stands for the equilibrium constant for the complex coming apart.

For assay [1], the system named is THP-1 Lucia ISG cells (interferon pathway). As to the kind of experiment: Potency test of purified dimers on THP-1 Lucia ISG reporter cells. The following applies: for Raw readings: replicates 1-3; for fold induction at 0.00152416 µM: Concentration 1.52416 nM; for fold induction at 0.00457247 µM: Concentration 4.57247 nM; for fold induction at 0.123457 µM: Concentration 123.457 nM; for fold induction at 0.37037 µM: Concentration 370.37 nM; for fold induction at 1.11111 µM: Concentration 1111.11 nM; for fold induction at 3.33333 µM: Concentration 3333.33 nM; for fold induction at 10 µM: Concentration 10000 nM; for EC50: three biological replicates, mean ± s.d., read-out: EC50 THP-1. Type of assay: cell-based, human. The method, then: Cells were pelleted (150g, 10 min) and resuspended in the growth medium (40% conditioned) at a density of 1 × 10^6 cells ml^−1. The cell suspension was dispensed (50 µl each well) into a lidded white 96-well plate (BrandTech 781665). Test compounds or DMSO control were diluted in the growth medium and sterilized by filtering through 0.22-µm polyethersulfone (PES) membranes (Merck SLGP033RS). […] Upon cooling down to room temperature, 50 µl of reconstituted luciferase substrate (InvivoGen QUANTI-Luc) was added to each well via the injector of the plate reader (Molecular Devices SpectraMax i3x), and the luminescence output was recorded (4 s delay, 0.1 s integration). Raw signals were divided by the averaged signal of the DMSO-treated control wells and reported in relative luminescence unit (RLU). The dose–response curve of each replicate was fitted individually using the standard 4PL model (GraphPad Prism). The EC50 value of each compound was averaged from three independent experiments and reported as mean ± s.e.m.

Assay [2] addresses T1, wild-type human STING LBD (hSTINGwt 138-379) (Homo sapiens, UniProt Q86WV6, H232R).
T1 construct: SUMO (N, cleaved yes); made in house; host or cells: Escherichia coli BL21 (DE3)
As to the kind of experiment: Isothermal titration calorimetry (ITC), reverse titration. The class given is binding. As for the experimental part: Escherichia coli BL21 (DE3) (Thermo Scientific EC0114) was transformed with a pET28a plasmid (Genscript) harbouring the codon-optimized sequence of SUMO-hSTINGwt (aa138-379). Transformed BL21 cells were inoculated into LB medium (50 µg ml^−1 kanamycin) and incubated at 180 rpm, 37 °C overnight. The overnight culture was then diluted (1:100 dilution) in 2× YT medium (50 µg ml^−1 kanamycin) and incubated at 180 rpm, 37 °C until optical density at 600 nm (OD600) reached 0.6 (approximately 3 h). The bacterial culture was then cooled to 16 °C, induced with 0.5 mM isopropyl 1-thio-D-galactopyranoside and incubated overnight at 180 rpm, 16 °C. The bacterial cells were pelleted at 4,000g for 30 min, resuspended in 20 ml of lysis buffer (25 mM HEPES pH 7.5, 150 mM NaCl, 20 mM imidazole and 2 mM TCEP supplied with 2 tablets of cOmplete mini EDTA-free protease inhibitors) and disrupted by sonication on ice. The total lysate was clarified by centrifugation at 22,000g for 30 min. The supernatant was collected and filtered through a 0.45-µm filter (Millipore SLHAR33SS). The clarified lysate was then incubated on a roller with 10 ml bed volume of Ni-NTA resin (Thermo Scientific 88223) at 4 °C for 1 h. The Ni-NTA resin was then packed in a column, flushed with 20 ml of wash buffer (25 mM HEPES pH 7.5, 150 mM NaCl and 20 mM imidazole) and eluted with 40 ml of elution buffer (25 mM HEPES pH 8.0, 150 mM NaCl and 250 mM imidazole). The eluted protein was concentrated to approximately 5 ml (Millipore Amicon 10 kDa molecular weight cut-off (MWCO)) and buffer-exchanged into storage buffer (25 mM HEPES pH 7.5 and 150 mM NaCl). TCEP was then added to a final concentration of 2 mM, and 250 units of SUMO protease (Merck SAE0067) were added. The cleavage reaction mixture was left to stand at 4 °C overnight until LC–MS analysis indicated the completion of the cleavage reaction. The cleavage mixture was incubated with 10 ml bed volume of Ni-NTA resin on a roller at 4 °C for 1 h and packed in a disposable column. The flowthrough was collected, and the resin was further flushed with 20 ml of wash buffer. The eluted fractions were combined, concentrated and further purified by size-exclusion chromatography (Cytiva, Superdex 200 Increase 10/300 GL). The purified protein in storage buffer was concentrated to 330 µM (dimer concentration) as determined by bicinchoninic acid (BCA) assay, aliquoted, flash-frozen in liquid nitrogen and stored at −80 °C for future use.
The binding constants of purified dimers were measured by ITC (Malvern Panalytical AutoITC200) in a reverse-titration format. Stock DMSO solutions of each dimer were dissolved in titration buffer (25 mM HEPES pH 7.5 and 150 mM NaCl) to a final concentration of 25 µM and added to the titration cell. The syringe was filled with 250 µM of purified STING in a matching buffer. Titration was performed at 25 °C with the following parameters: 750 rpm stirring, 0.2 µl initial injection followed by 2-µl injections of the […] every 120 s. Titration of STING protein into blank buffer was separately performed and subtracted from the raw data before the analysis. The background-subtracted titration curves were fitted with the built-in Origin software using the standard one-site model.
Extended Data Fig. 2 Isothermal titration calorimetry (ITC) data for binding constant measurements. Purified hSTINGwt138-379 (250 μM of homodimer) was titrated into each dimer (25 μM) dissolved in a matching buffer (25 mM HEPES pH 7.5, 150 mM NaCl) at 25 °C and 750 rpm stirring. Binding constants were reported as the average from duplicate measurements.
(In general: ITC needs no label: the signal is the heat of the interaction.)

In a further assay the test system is THP-1 cells. Put plainly: Dilution limits of N1/E4 combination to activate THP-1 cells (IFN-β ELISA). The following applies: IFN-β secretion, 6 h, single component. For orientation: ELISA stands for enzyme-linked immunosorbent assay.
Where [3] appears, read: Homo sapiens, THP1-Lucia ISG, 24 h, three replicates, read-out: Processed reporter response per replicate (reading relative to DMSO).
Where [4] appears, read: Homo sapiens, THP1-Lucia ISG, 24 h.
[5] abbreviates: 25 °C, average of duplicate measurements, read-out: Kd hSTINGwt (binding constant, ITC).

Several values for one entry are separate records, joined by “and”; a condition that tells them apart may be missing. Identical values can stand only once. Like-named read-outs stand apart in the source and are kept apart here. Some results are limits rather than exact numbers.

T1 sequence (Q86WV6 138-379 H232R): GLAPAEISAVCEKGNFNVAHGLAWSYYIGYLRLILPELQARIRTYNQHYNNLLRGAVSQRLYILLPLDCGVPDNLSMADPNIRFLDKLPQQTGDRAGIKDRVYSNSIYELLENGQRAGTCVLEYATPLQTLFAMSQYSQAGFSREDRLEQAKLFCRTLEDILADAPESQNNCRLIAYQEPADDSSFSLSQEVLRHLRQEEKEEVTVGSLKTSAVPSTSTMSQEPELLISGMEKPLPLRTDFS

With `COc1cc2sc(C(=O)CCC(=O)O)cc2cc1CSCc1cc2cc(C(=O)CCC(=O)O)sc2cc1OC` [Compound D7], the Raw readings was 1113 RLU and 627 RLU and 644 RLU in assay [1] (Conc 0.508053 nM); 1094 RLU and 992 RLU and 1053 RLU in assay [1] (Conc 1.52416 nM); 783 RLU and 1083 RLU and 911 RLU in assay [1] (Conc 4.57247 nM); 1811 RLU and 3669 RLU and 2075 RLU in assay [1] (Conc 13.7174 nM); 26401 RLU and 56159 RLU and 31852 RLU in assay [1] (Conc 41.1523 nM); 95964 RLU and 153788 RLU and 83328 RLU in assay [1] (Conc 123.457 nM). In addition, the Raw readings is 127337 RLU and 208679 RLU and 128863 RLU in assay [1] (Conc 370.37 nM); 148790 RLU and 255878 RLU and 161073 RLU in assay [1] (Conc 1111.11 nM); 168239 RLU and 288236 RLU and 165803 RLU in assay [1] (Conc 3333.33 nM); 170045 RLU and 271936 RLU and 154582 RLU in assay [1] (Conc 10000 nM). Besides, the fold induction at 0.00152416 µM in assay [1] (setting [3]) amounted to 1.5. Further, the fold induction at 0.00457247 µM in assay [1] (setting [3]) worked out at 1.07. Also, in assay [1] (Homo sapiens, THP1-Lucia ISG, 24 h, Concentration 13.7174 nM, three replicates, read-out: Processed reporter response per replicate (reading relative to DMSO)), the fold induction at 0.0137174 µM turned out to be 2.48. Moreover, in assay [1] (Homo sapiens, THP1-Lucia ISG, 24 h, Concentration 41.1523 nM, three replicates, read-out: Processed reporter response per replicate (reading relative to DMSO)), the fold induction at 0.0411523 µM was 36.1. Further, the fold induction at 0.123457 µM in assay [1] (setting [3]) is 131. Besides, in assay [1] (setting [3]), the fold induction at 0.37037 µM came out at 174. The fold induction at 1.11111 µM in assay [1] (setting [3]) was 204. Besides, the fold induction at 3.33333 µM in assay [1] (setting [3]) amounted to 230. For the same molecule, the fold induction at 10 µM in assay [1] (setting [3]) turned out to be 233. For the same molecule, the EC50 in assay [1] (setting [4]) came out at 119 ± 2 nM. For the same molecule, the Kd in assay [2] (setting [5]) worked out at 12 nM; in assay [2] (ITC run _01, read-out: Kd), 15 nM; in assay [2] (ITC run _02, read-out: Kd), 8 nM.
With `COc1cc2sc(C(=O)CCC(=O)O)cc2cc1SCSc1cc2cc(C(=O)CCC(=O)O)sc2cc1OC` [Compound D5], the Raw readings in assay [1] (Conc 0.508053 nM) is 1203 RLU and 820 RLU and 682 RLU; in assay [1] (Conc 1.52416 nM), 644 RLU and 783 RLU and 699 RLU; in assay [1] (Conc 4.57247 nM) it was 790 RLU and 1094 RLU and 558 RLU; in assay [1] (Conc 13.7174 nM), 2256 RLU and 4162 RLU and 2105 RLU; in assay [1] (Conc 41.1523 nM) it was 27829 RLU and 66900 RLU and 34361 RLU; in assay [1] (Conc 123.457 nM), 93770 RLU and 170286 RLU and 89246 RLU. The Raw readings in assay [1] (Conc 370.37 nM) is 121713 RLU and 224782 RLU and 129344 RLU; in assay [1] (Conc 1111.11 nM), 143643 RLU and 288417 RLU and 167064 RLU; in assay [1] (Conc 3333.33 nM) it was 169624 RLU and 310357 RLU and 172333 RLU; in assay [1] (Conc 10000 nM), 161133 RLU and 278063 RLU and 147917 RLU. For the same molecule, the fold induction at 0.00152416 µM in assay [1] (setting [3]) came out at 0.881. For the same molecule, in assay [1] (setting [3]), the fold induction at 0.123457 µM was determined as 128. Further, in assay [1] (setting [3]), the fold induction at 0.37037 µM amounted to 166. For the same molecule, the fold induction at 1.11111 µM in assay [1] (setting [3]) is 196. Moreover, the fold induction at 3.33333 µM in assay [1] (setting [3]) came out at 232. The fold induction at 10 µM in assay [1] (setting [3]) stood at 220. The EC50 in assay [1] (setting [4]) came to 112 ± 6 nM. The equilibrium dissociation constant (Kd) came out at 32 nM in assay [2] (setting [5]); 33 nM in assay [2] (ITC run _01, read-out: Kd); 31 nM in assay [2] (ITC run _02, read-out: Kd).
Consider `COc1cc2sc(C(=O)CCC(=O)O)cc2cc1CSc1cc2cc(C(=O)CCC(=O)O)sc2cc1OC` [Compound D2], for which the Raw readings in assay [1] (Conc 0.508053 nM) was 658 RLU and 1263 RLU and 1053 RLU; in assay [1] (Conc 1.52416 nM) it was 564 RLU and 729 RLU and 601 RLU; in assay [1] (Conc 4.57247 nM), 1074 RLU and 921 RLU and 1413 RLU; in assay [1] (Conc 13.7174 nM), 6767 RLU and 16752 RLU and 12692 RLU; in assay [1] (Conc 41.1523 nM), 51165 RLU and 121226 RLU and 61063 RLU; in assay [1] (Conc 123.457 nM), 102439 RLU and 196826 RLU and 100000 RLU. In addition, the Raw readings was 111711 RLU and 237713 RLU and 134702 RLU in assay [1] (Conc 370.37 nM); 126733 RLU and 297637 RLU and 176097 RLU in assay [1] (Conc 1111.11 nM); 139803 RLU and 327985 RLU and 173658 RLU in assay [1] (Conc 3333.33 nM); 138886 RLU and 307582 RLU and 153848 RLU in assay [1] (Conc 10000 nM). The fold induction at 0.000508053 µM in assay [1] (Homo sapiens, THP1-Lucia ISG, 24 h, Concentration 0.508053 nM, three replicates, read-out: Processed reporter response per replicate (reading relative to DMSO)) worked out at 0.9. The fold induction at 0.00152416 µM in assay [1] (setting [3]) is 0.771. Moreover, in assay [1] (setting [3]), the fold induction at 0.00457247 µM stood at 1.47. Besides, the fold induction at 0.37037 µM in assay [1] (setting [3]) was found to be 153. In assay [1] (setting [3]), the fold induction at 1.11111 µM is 173. In assay [1] (setting [3]), the fold induction at 3.33333 µM came to 191. Also, in assay [1] (setting [4]), the EC50 turned out to be 74 ± 12 nM. For the same molecule, the Kd in assay [2] (setting [5]) is 46 nM; in assay [2] (ITC run _01, read-out: Kd), 79 nM; in assay [2] (ITC run _02, read-out: Kd) it was 13 nM.
For `COc1cc2sc(C(=O)CCC(=O)O)cc2cc1S` [Compound N1], the “concentration up to which no STING activation was shown (alone)” value in the assay with THP-1 cells was more than 64 µM.
